{"source": "the supplement of paper PMC10307832", "assay_in_all_cases": "relative viability (nuclei count vs DMSO), 5 days (fraction); higher = more cells survive", "key": {"NCI-H522": {"tested_on": "NCI-H522", "procedure,_shortened": "(§1)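 Five library-drug doses in √10 steps were combined with a fixed anchor-drug dose, or a single drug was given alone, by pin tool to lung cancer cell lines in 1536-well plates the day after seeding. Nuclei were stained and counted after 5 days. Relative viability is the nuclei count in treated wells over that in vehicle wells, taken as the median of duplicate plates.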"}, "NCI-H2009": {"tested_on": "NCI-H2009", "procedure,_shortened": "as §1"}, "NCI-H2170": {"tested_on": "NCI-H2170", "procedure,_shortened": "as §1"}, "NCI-H2228": {"tested_on": "NCI-H2228", "procedure,_shortened": "as §1"}, "NCI-H1734": {"tested_on": "NCI-H1734", "procedure,_shortened": "as §1"}, "COR-L23": {"tested_on": "COR-L23", "procedure,_shortened": "as §1"}, "NCI-H838": {"tested_on": "NCI-H838", "procedure,_shortened": "as §1"}, "NCI-H1793": {"tested_on": "NCI-H1793", "procedure,_shortened": "as §1"}, "SK-MES-1": {"tested_on": "SK-MES-1", "procedure,_shortened": "as §1"}, "NCI-H1755": {"tested_on": "NCI-H1755", "procedure,_shortened": "as §1"}, "COR-L 105": {"tested_on": "COR-L 105", "procedure,_shortened": "as §1"}, "NCI-H2342": {"tested_on": "NCI-H2342", "procedure,_shortened": "as §1"}}, "data": [{"smiles": "Clc1ccc(Nc2nnc(Cc3ccncc3)c3ccccc23)cc1", "note": "[Vatalanib] + N=C(N)NC(=N)NCCc1ccccc1 [Phenformin] (partner 250 µM)", "values": [{"measurement": "relative viability", "setting": "NCI-H522; first compound 0.1265 µM", "value": 0.531}, {"measurement": "relative viability", "setting": "NCI-H522; first compound 0.4 µM", "value": 0.673}, {"measurement": "relative viability", "setting": "NCI-H522; first compound 1.265 µM", "value": 0.623}, {"measurement": "relative viability", "setting": "NCI-H522; first compound 4 µM", "value": 0.597}, {"measurement": "relative viability", "setting": "NCI-H2009; first compound 0.04 µM", "value": 0.578}, {"measurement": "relative viability", "setting": "NCI-H2009; first compound 0.1265 µM", "value": 0.439}, {"measurement": "relative viability", "setting": "NCI-H2009; first compound 0.4 µM", "value": 0.464}, {"measurement": "relative viability", "setting": "NCI-H2009; first compound 1.265 µM", "value": 0.406}, {"measurement": "relative viability", "setting": "NCI-H2009; first compound 4 µM", "value": 0.391}, {"measurement": "relative viability", "setting": "NCI-H2170; first compound 0.04 µM", "value": 0.437}, {"measurement": "relative viability", "setting": "NCI-H2170; first compound 0.1265 µM", "value": 0.476}, {"measurement": "relative viability", "setting": "NCI-H2170; first compound 0.4 µM", "value": 0.469}, {"measurement": "relative viability", "setting": "NCI-H2170; first compound 1.265 µM", "value": 0.405}, {"measurement": "relative viability", "setting": "NCI-H2170; first compound 4 µM", "value": 0.353}, {"measurement": "relative viability", "setting": "NCI-H2228; first compound 0.04 µM", "value": 0.364}, {"measurement": "relative viability", "setting": "NCI-H2228; first compound 0.1265 µM", "value": 0.317}, {"measurement": "relative viability", "setting": "NCI-H2228; first compound 0.4 µM", "value": 0.335}, {"measurement": "relative viability", "setting": "NCI-H2228; first compound 1.265 µM", "value": 0.366}, {"measurement": "relative viability", "setting": "NCI-H2228; first compound 4 µM", "value": 0.322}, {"measurement": "relative viability", "setting": "NCI-H1734; first compound 0.04 µM", "value": 0.459}, {"measurement": "relative viability", "setting": "NCI-H1734; first compound 0.1265 µM", "value": 0.328}, {"measurement": "relative viability", "setting": "NCI-H1734; first compound 0.4 µM", "value": 0.463}, {"measurement": "relative viability", "setting": "NCI-H1734; first compound 1.265 µM", "value": 0.322}, {"measurement": "relative viability", "setting": "NCI-H1734; first compound 4 µM", "value": 0.346}, {"measurement": "relative viability", "setting": "COR-L23; first compound 0.04 µM", "value": 0.442}, {"measurement": "relative viability", "setting": "COR-L23; first compound 0.1265 µM", "value": 0.43}, {"measurement": "relative viability", "setting": "COR-L23; first compound 0.4 µM", "value": 0.467}, {"measurement": "relative viability", "setting": "COR-L23; first compound 1.265 µM", "value": 0.389}, {"measurement": "relative viability", "setting": "COR-L23; first compound 4 µM", "value": 0.402}, {"measurement": "relative viability", "setting": "NCI-H838; first compound 0.04 µM", "value": 0.607}, {"measurement": "relative viability", "setting": "NCI-H838; first compound 0.1265 µM", "value": 0.476}, {"measurement": "relative viability", "setting": "NCI-H838; first compound 0.4 µM", "value": 0.69}, {"measurement": "relative viability", "setting": "NCI-H838; first compound 1.265 µM", "value": 0.563}, {"measurement": "relative viability", "setting": "NCI-H838; first compound 4 µM", "value": 0.548}, {"measurement": "relative viability", "setting": "NCI-H1793; first compound 0.04 µM", "value": 0.354}, {"measurement": "relative viability", "setting": "NCI-H1793; first compound 0.1265 µM", "value": 0.341}, {"measurement": "relative viability", "setting": "NCI-H1793; first compound 0.4 µM", "value": 0.435}, {"measurement": "relative viability", "setting": "NCI-H1793; first compound 1.265 µM", "value": 0.295}, {"measurement": "relative viability", "setting": "NCI-H1793; first compound 4 µM", "value": 0.296}, {"measurement": "relative viability", "setting": "SK-MES-1; first compound 0.04 µM", "value": 0.659}, {"measurement": "relative viability", "setting": "SK-MES-1; first compound 0.1265 µM", "value": 0.638}, {"measurement": "relative viability", "setting": "SK-MES-1; first compound 0.4 µM", "value": 0.753}, {"measurement": "relative viability", "setting": "SK-MES-1; first compound 1.265 µM", "value": 0.572}, {"measurement": "relative viability", "setting": "SK-MES-1; first compound 4 µM", "value": 0.537}, {"measurement": "relative viability", "setting": "NCI-H1755; first compound 0.04 µM", "value": 0.613}, {"measurement": "relative viability", "setting": "NCI-H1755; first compound 0.1265 µM", "value": 0.577}, {"measurement": "relative viability", "setting": "NCI-H1755; first compound 0.4 µM", "value": 0.661}, {"measurement": "relative viability", "setting": "NCI-H1755; first compound 1.265 µM", "value": 0.596}, {"measurement": "relative viability", "setting": "NCI-H1755; first compound 4 µM", "value": 0.603}, {"measurement": "relative viability", "setting": "COR-L 105; first compound 0.04 µM", "value": 0.469}, {"measurement": "relative viability", "setting": "COR-L 105; first compound 0.1265 µM", "value": 0.37}, {"measurement": "relative viability", "setting": "COR-L 105; first compound 0.4 µM", "value": 0.475}, {"measurement": "relative viability", "setting": "COR-L 105; first compound 1.265 µM", "value": 0.45}, {"measurement": "relative viability", "setting": "COR-L 105; first compound 4 µM", "value": 0.423}, {"measurement": "relative viability", "setting": "NCI-H2342; first compound 0.04 µM", "value": 0.573}, {"measurement": "relative viability", "setting": "NCI-H2342; first compound 0.1265 µM", "value": 0.477}, {"measurement": "relative viability", "setting": "NCI-H2342; first compound 0.4 µM", "value": 0.461}, {"measurement": "relative viability", "setting": "NCI-H2342; first compound 1.265 µM", "value": 0.652}, {"measurement": "relative viability", "setting": "NCI-H2342; first compound 4 µM", "value": 0.53}]}]}
